# Data reported in PubChem BioAssay (NCI).
#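 Test compounds were applied to cells in 96-well plates for 48 hours at 5 doses. GI50 = concentration required for 50% inhibition of growth. TGI: concentration producing complete growth inhibition.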
# How the values were obtained:
# Assay in all cases: NCI tumour cell line growth inhibition, 48 h
# [1] = tested on: SK-OV-3 ovarian
# [2] = tested on: MCF7 breast
# [3] = tested on: MALME-3M melanoma
# [4] = tested on: A549 NSCLC
# [5] = tested on: OVCAR-4 ovarian
# [6] = tested on: RPMI-8226 leukemia
# [7] = tested on: NCI-H226 lung
# [8] = tested on: OVCAR-8 ovarian
# [9] = tested on: OVCAR-5 ovarian
# [10] = tested on: T-47D breast
# [11] = tested on: UO-31 renal
# [12] = tested on: SF-268 CNS
# [13] = tested on: TK-10 renal
# [14] = tested on: HL-60(TB) leukemia
# [15] = tested on: CAKI-1 renal
# [16] = tested on: K-562 leukemia
# [17] = tested on: MDA-MB-231 breast
# [18] = tested on: IGROV1 ovarian
# [19] = tested on: SF-295 CNS
# [20] = tested on: EKVX NSCLC
# [21] = tested on: U251 CNS
# [22] = tested on: UACC-62 melanoma
# [23] = tested on: HCT-116 colon
# [24] = tested on: HOP-92 NSCLC
# [25] = tested on: NCI/ADR-RES ovarian
# [26] = tested on: SK-MEL-28 melanoma
# [27] = tested on: UACC-257 melanoma
# [28] = tested on: MDA-MB-435
# [29] = tested on: HT29 colon
# [30] = tested on: CCRF-CEM leukemia
# [31] = tested on: SF-539 CNS
# [32] = tested on: LOX IMVI melanoma
# [33] = tested on: SR leukemia
# [34] = tested on: NCI-H23 lung
# [35] = tested on: HCC-2998 colon
# [36] = tested on: SK-MEL-5 melanoma
# [37] = tested on: HS 578T breast
# [38] = tested on: HOP-62 NSCLC
# [39] = tested on: SK-MEL-2 melanoma
# [40] = tested on: NCI-H460 lung
# [41] = tested on: M14 melanoma
# [42] = tested on: MOLT-4 leukemia
# [43] = tested on: BT-549 breast
# [44] = tested on: SNB-19 CNS
# [45] = tested on: SNB-75 CNS
# [46] = tested on: DU-145 prostate
# [47] = tested on: 786-0 renal
# [48] = tested on: A498 renal
# [49] = tested on: COLO 205 colon
# [50] = tested on: RXF 393 renal
# [51] = tested on: PC-3 prostate
# [52] = tested on: NCI-H522 lung
# [53] = tested on: HCT-15 colon
# [54] = tested on: KM12 colon
# [55] = tested on: SW-620 colon
# [56] = tested on: SN12C renal
# [57] = tested on: ACHN renal
# [58] = tested on: OVCAR-3 ovarian
compound,measurement,setting,value
N#Cc1ncc(N2C(=O)C3(CCC3)N(c3ccc(OC4CCNCC4)nc3)C2=S)cc1C(F)(F)F,GI50,[1],60.5 µM
same,TGI,[1],> 100 µM
same,GI50,[2],11.5 µM
same,TGI,[2],26.4 µM
same,GI50,[3],13.2 µM
same,TGI,[3],27.6 µM
same,GI50,[4],27.7 µM
same,TGI,[4],> 100 µM
same,GI50,[5],18.2 µM
same,TGI,[5],44.4 µM
same,GI50,[6],11.5 µM
same,TGI,[6],32 µM
same,GI50,[7],15.7 µM
same,TGI,[7],34 µM
same,GI50,[8],25.1 µM
same,TGI,[8],76.2 µM
same,GI50,[9],17.3 µM
same,TGI,[9],46.8 µM
same,GI50,[10],12.2 µM
same,TGI,[10],49.6 µM
same,GI50,[11],11 µM
same,TGI,[11],23.3 µM
same,GI50,[12],18.6 µM
same,TGI,[12],43.2 µM
same,GI50,[13],17.9 µM
same,TGI,[13],39.1 µM
same,GI50,[14],12.1 µM
same,TGI,[14],33.9 µM
same,GI50,[15],14 µM
same,TGI,[15],28.9 µM
same,GI50,[16],5.84 µM
same,TGI,[16],34.4 µM
same,GI50,[17],16.4 µM
same,TGI,[17],33.6 µM
same,GI50,[18],17.1 µM
same,TGI,[18],36.3 µM
same,GI50,[19],16.1 µM
same,TGI,[19],31.5 µM
same,GI50,[20],18 µM
same,TGI,[20],46.4 µM
same,GI50,[21],20.2 µM
same,TGI,[21],48.7 µM
same,GI50,[22],15.9 µM
same,TGI,[22],31.5 µM
same,GI50,[23],11.7 µM
same,TGI,[23],24.4 µM
same,GI50,[24],1.11 µM
same,TGI,[24],10.5 µM
same,GI50,[25],25.2 µM
same,TGI,[25],81.9 µM
same,GI50,[26],13.8 µM
same,TGI,[26],27.4 µM
same,GI50,[27],12.1 µM
same,TGI,[27],25.8 µM
same,GI50,[28],15.8 µM
same,TGI,[28],31.3 µM
same,GI50,[29],8.92 µM
same,TGI,[29],29.9 µM
same,GI50,[30],13.5 µM
same,TGI,[30],39.1 µM
same,GI50,[31],15.4 µM
same,TGI,[31],30 µM
same,GI50,[32],11.2 µM
same,TGI,[32],24 µM
same,GI50,[33],3.37 µM
same,TGI,[33],21.1 µM
same,GI50,[34],13.9 µM
same,TGI,[34],32.1 µM
same,GI50,[35],15.6 µM
same,TGI,[35],31.2 µM
same,GI50,[36],17.2 µM
same,TGI,[36],32 µM
same,GI50,[37],15.9 µM
same,TGI,[37],41.5 µM
same,GI50,[38],25.2 µM
same,TGI,[38],67.4 µM
same,GI50,[39],15.1 µM
same,TGI,[39],30.5 µM
same,GI50,[40],16.8 µM
same,TGI,[40],31.7 µM
same,GI50,[41],7.31 µM
same,TGI,[41],20.6 µM
same,GI50,[42],13.1 µM
same,TGI,[42],42 µM
same,GI50,[43],12.9 µM
same,TGI,[43],26 µM
same,GI50,[44],36.8 µM
same,TGI,[44],> 100 µM
same,GI50,[45],15.4 µM
same,TGI,[45],50.1 µM
same,GI50,[46],18.8 µM
same,TGI,[46],41.1 µM
same,GI50,[47],13.6 µM
same,TGI,[47],26.8 µM
same,GI50,[48],12.2 µM
same,TGI,[48],32.7 µM
same,GI50,[49],14.2 µM
same,TGI,[49],28.3 µM
same,GI50,[50],12.1 µM
same,TGI,[50],25.8 µM
same,GI50,[51],13.9 µM
same,TGI,[51],28.9 µM
same,GI50,[52],18.1 µM
same,TGI,[52],35.5 µM
same,GI50,[53],13.1 µM
same,TGI,[53],27.8 µM
same,GI50,[54],18.5 µM
same,TGI,[54],37 µM
same,GI50,[55],14.7 µM
same,TGI,[55],29.5 µM
same,GI50,[56],15.8 µM
same,TGI,[56],36 µM
same,GI50,[57],17.7 µM
same,TGI,[57],32 µM
Cc1nc2sc(C(=O)Nc3cccc(Cl)c3C)c(N)c2cc1C(C)O (stereo not given),GI50,[1],0.382 µM
same,TGI,[1],> 61 µM
same,GI50,[2],0.103 µM
same,TGI,[2],> 53.2 µM
same,GI50,[3],1.11 µM
same,TGI,[3],37.5 µM
same,GI50,[4],0.246 µM
same,TGI,[4],> 61.8 µM
same,GI50,[5],3.45 µM
same,TGI,[5],> 68.4 µM
same,GI50,[6],0.347 µM
same,TGI,[6],> 94 µM
same,GI50,[7],2.21 µM
same,TGI,[7],> 80.8 µM
same,GI50,[8],0.396 µM
same,TGI,[8],> 71.7 µM
same,GI50,[9],0.7 µM
same,TGI,[9],> 74.8 µM
same,GI50,[10],0.443 µM
same,TGI,[10],> 100 µM
same,GI50,[11],0.61 µM
same,TGI,[11],29.2 µM
same,GI50,[12],5.75 µM
same,TGI,[12],> 82.2 µM
same,GI50,[14],0.092 µM
same,GI50,[15],0.334 µM
same,TGI,[15],> 100 µM
same,GI50,[16],0.0459 µM
same,TGI,[16],> 38.5 µM
same,GI50,[17],0.547 µM
same,TGI,[17],46.5 µM
same,GI50,[18],0.414 µM
same,TGI,[18],> 69.6 µM
same,GI50,[19],0.119 µM
same,TGI,[19],> 41.6 µM
same,GI50,[20],0.533 µM
same,TGI,[20],> 77 µM
same,GI50,[21],0.223 µM
same,TGI,[21],> 39.2 µM
same,GI50,[22],0.0852 µM
same,TGI,[22],44.9 µM
same,GI50,[23],0.159 µM
same,TGI,[23],> 35.7 µM
same,GI50,[24],4.36 µM
same,TGI,[24],53.4 µM
same,GI50,[25],0.119 µM
same,TGI,[25],> 61.3 µM
same,GI50,[26],5.8 µM
same,TGI,[26],> 55.6 µM
same,GI50,[27],20.2 µM
same,TGI,[27],> 51.6 µM
same,GI50,[28],0.0288 µM
same,TGI,[28],0.101 µM
same,GI50,[29],0.112 µM
same,TGI,[29],13.8 µM
same,GI50,[30],0.115 µM
same,TGI,[30],> 54.7 µM
same,GI50,[31],0.181 µM
same,TGI,[31],1.9 µM
same,GI50,[32],0.274 µM
same,TGI,[32],> 44.1 µM
same,GI50,[33],0.0418 µM
same,TGI,[33],> 51.7 µM
same,GI50,[34],0.567 µM
same,TGI,[34],> 56.6 µM
same,GI50,[35],0.532 µM
same,TGI,[35],26.3 µM
same,GI50,[36],0.26 µM
same,TGI,[36],15.6 µM
same,GI50,[37],0.182 µM
same,TGI,[37],> 74.9 µM
same,GI50,[38],0.53 µM
same,TGI,[38],> 100 µM
same,GI50,[40],0.237 µM
same,TGI,[40],> 37.2 µM
same,GI50,[41],0.341 µM
same,TGI,[41],> 100 µM
same,GI50,[42],0.151 µM
same,TGI,[42],> 42.7 µM
same,GI50,[43],0.475 µM
same,TGI,[43],> 32.3 µM
same,GI50,[44],0.293 µM
same,TGI,[44],> 100 µM
same,GI50,[45],0.097 µM
same,TGI,[45],> 42.1 µM
same,GI50,[46],0.329 µM
same,TGI,[46],> 86.5 µM
same,GI50,[47],0.449 µM
same,TGI,[47],> 49.2 µM
same,GI50,[48],0.0173 µM
same,TGI,[48],0.544 µM
same,GI50,[49],0.257 µM
same,TGI,[49],7.04 µM
same,GI50,[50],0.189 µM
same,TGI,[50],18.1 µM
same,GI50,[51],0.286 µM
same,TGI,[51],> 100 µM
same,GI50,[52],0.112 µM
same,TGI,[52],5.96 µM
same,GI50,[58],0.114 µM
same,TGI,[58],> 33.4 µM
same,GI50,[53],0.091 µM
same,TGI,[53],> 39.6 µM
same,GI50,[54],0.175 µM
same,TGI,[54],> 41.1 µM
same,GI50,[55],0.127 µM
same,TGI,[55],> 54.3 µM
same,GI50,[56],0.916 µM
same,TGI,[56],> 47.4 µM
same,GI50,[57],0.63 µM
same,TGI,[57],> 50.1 µM
